Drawing on patent US20120202690A1, “HERBICIDAL COMPOUNDS” (SYNGENTA LIMITED, priority 2009, published 2012), this text covers pest or weed control and melting point for seven compounds.

In data set [1] the test system is Echinochloa crusgaffi (ECHCG). Description: Post-emergence biological efficacy, glasshouse, 500 or 1000 g/ha, evaluated after 13 days (100=total damage to plant; 0=no damage to plant). The data set is classed as in vivo. Conditions: Echinochloa, 312 h, read-out: Percentage damage caused to weed species, post-emergence, ECHCG; for pest or weed control at 1000 g/ha: rate 1,000 g/ha. The procedure, abridged: (§1)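 Weed seeds were sown in standard soil in pots and the plants treated post-emergence. Afterwards they were grown on in a controlled glasshouse at 24/16° C. day/night with 14 hours light and 65% humidity, and watered twice daily.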

Data set [2] relates to Amaranthus retroflexus (AMARE). The description is as above. The data set is classed as in vivo. The following applies: Amaranthus retroflexus, 312 h, read-out: Percentage damage caused to weed species, post-emergence, AMARE; for pest or weed control at 1000 g/ha: rate 1,000 g/ha. The procedure, abridged:
as §1

The test system of data set [3] is Solanum nigrum (SOLNI). Described as above. The data set is classed as in vivo. The following applies: Solanum nigrum, 312 h, read-out: Percentage damage caused to weed species, post-emergence, SOLNI; for pest or weed control at 1000 g/ha: rate 1,000 g/ha. In outline:
as §1

Data set [4] concerns Alopecurus myosuroides (ALOMY). The data set is described as above. The data set is classed as in vivo. The following applies: Alopecurus myosuroides, 312 h, read-out: Percentage damage caused to weed species, post-emergence, ALOMY; for pest or weed control at 1000 g/ha: rate 1,000 g/ha. In outline: as §1
The test system of data set [5] is Ipomoea hederaceae (IPOHE). The description is as above. The data set is classed as in vivo. The following applies: Ipomoea, 312 h, read-out: Percentage damage caused to weed species, post-emergence, IPOHE; for pest or weed control at 1000 g/ha: rate 1,000 g/ha. In outline: as §1
In data set [6] the test system is Setaria faberi (SETFA). Described as above. The data set is classed as in vivo. The following applies: Setaria faberi, 312 h, read-out: Percentage damage caused to weed species, post-emergence, SETFA; for pest or weed control at 1000 g/ha: rate 1,000 g/ha. The procedure, abridged: as §1
The subject of data set [7] is Amaranthus retroflexus (AMARE). Description: Pre-emergence biological efficacy, glasshouse, 1000 g/ha, evaluated after 13 days (100=total damage to plant; 0=no damage to plant). The data set is classed as in vivo. Conditions: Amaranthus retroflexus, 312 h, read-out: Percentage damage caused to weed species, pre-emergence, AMARE; for pest or weed control at 1000 g/ha: rate 1,000 g/ha. The procedure, abridged: (§2)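 Sowing: standard soil, pots. Growth: glasshouse, 24/16° C. day/night, 14 hours light, 65% humidity. Watering: twice daily.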

The subject of data set [8] is Solanum nigrum (SOLNI). The data set is described as above. The format is in vivo. The following applies: Solanum nigrum, 312 h, read-out: Percentage damage caused to weed species, pre-emergence, SOLNI; for pest or weed control at 1000 g/ha: rate 1,000 g/ha. In outline: as §2
In data set [9] the test system is Alopecurus myosuroides (ALOMY). Described as above. The data set is classed as in vivo. Conditions: Alopecurus myosuroides, 312 h, read-out: Percentage damage caused to weed species, pre-emergence, ALOMY; for pest or weed control at 1000 g/ha: rate 1,000 g/ha. In outline:
as §2

The test system of data set [10] is Ipomoea hederaceae (IPOHE). Described as above. The data set is classed as in vivo. The following applies: Ipomoea, 312 h, read-out: Percentage damage caused to weed species, pre-emergence, IPOHE; for pest or weed control at 1000 g/ha: rate 1,000 g/ha. The procedure, abridged: as §2
Data set [11] deals with Echinochloa crus-galli (ECHCG). The data set is described as above. The data set is classed as in vivo. The following applies: Echinochloa crus-galli, 312 h, read-out: Percentage damage caused to weed species, pre-emergence, ECHCG; for pest or weed control at 1000 g/ha: rate 1,000 g/ha. The procedure, abridged:
as §2

In data set [12] the test system is Setaria faberi (SETFA). Described as above. The format is in vivo. Conditions: Setaria faberi, 312 h, read-out: Percentage damage caused to weed species, pre-emergence, SETFA; for pest or weed control at 1000 g/ha: rate 1,000 g/ha. In outline:
as §2

A word on the melting point: it is the temperature, or range, at which the solid turns liquid.

Each structure is given as a SMILES string.

`CCOCn1cc(C)c2c(C(=O)OC)nc(-c3ccc(Cl)c(OC)c3F)nc21` [Compound 3-64, 2-(4-chloro-2-fluoro-3-methoxyphenyl)-7-ethoxymethyl-4-methoxycarbonyl-5-methyl-7H-pyrrolo[2,3-d]pyrimidine] had a melting point of 107 to 108 °C. The pest or weed control at 1000 g/ha in data set [1] worked out at 0%. Also, in [2], the pest or weed control at 1000 g/ha worked out at 10%. In addition, the pest or weed control at 1000 g/ha in data set [3] came out at 40%. In addition, in [4], the pest or weed control at 1000 g/ha came to 0%. In data set [5], the pest or weed control at 1000 g/ha turned out to be 70%. For the same compound, the pest or weed control at 1000 g/ha in [6] came to 0%. Further, the pest or weed control at 1000 g/ha in [7] worked out at 0%. In addition, the pest or weed control at 1000 g/ha in data set [8] came out at 0%. Further, in data set [9], the pest or weed control at 1000 g/ha came to 0%. Also, in data set [10], the pest or weed control at 1000 g/ha was found to be 0%. Besides, the pest or weed control at 1000 g/ha in [11] was 0%. Besides, the pest or weed control at 1000 g/ha in data set [12] was found to be 0%.

Take `COC(=O)c1nc(-c2ccc(Cl)c(OC)c2F)nc2c1N(C)CCN2C` [Compound 92-164, 2-(4-chloro-2-fluoro-3-methoxyphenyl)-5,8-dimethyl-4-methoxycarbonyl-5,6,7,8-tetrahydropteridine]: the melting point stood at 97 °C. Besides, the pest or weed control at 1000 g/ha in data set [1] came out at 0%. Moreover, the pest or weed control at 1000 g/ha in data set [2] was determined as 0%. Further, the pest or weed control at 1000 g/ha in data set [3] was found to be 10%. The pest or weed control at 1000 g/ha in [4] is 0%. For the same compound, the pest or weed control at 1000 g/ha in data set [5] is 0%. Besides, the pest or weed control at 1000 g/ha in data set [6] is 0%. Also, in [7], the pest or weed control at 1000 g/ha stood at 0%. Further, the pest or weed control at 1000 g/ha in [8] was 0%. For the same compound, the pest or weed control at 1000 g/ha in data set [9] was found to be 0%. For the same compound, the pest or weed control at 1000 g/ha in data set [10] worked out at 0%. For the same compound, in data set [11], the pest or weed control at 1000 g/ha is 0%. In addition, the pest or weed control at 1000 g/ha in data set [12] came to 0%.

In turn, `COC(=O)c1nc(-c2ccc(Cl)c(OC)c2F)nc2c1N(C(C)C)CCN2C(C)C` [Compound 93-166, 2-(4-Chloro-2-fluoro-3-methoxyphenyl)-5,8-diisopropyl-4-methoxy-carbonyl-5,6,7,8-tetrahydropteridine] had a melting point of 135 °C. For the same compound, the pest or weed control at 1000 g/ha in data set [1] worked out at 10%. The pest or weed control at 1000 g/ha in data set [2] amounted to 0%. The pest or weed control at 1000 g/ha in data set [3] amounted to 10%. Besides, the pest or weed control at 1000 g/ha in data set [4] came to 20%. Moreover, in [5], the pest or weed control at 1000 g/ha stood at 10%. Further, in data set [6], the pest or weed control at 1000 g/ha came to 30%. Also, in data set [7], the pest or weed control at 1000 g/ha was determined as 0%. Also, the pest or weed control at 1000 g/ha in [8] amounted to 0%. For the same compound, the pest or weed control at 1000 g/ha in [9] was found to be 0%. Besides, the pest or weed control at 1000 g/ha in data set [10] was found to be 0%. The pest or weed control at 1000 g/ha in [11] worked out at 0%. For the same compound, the pest or weed control at 1000 g/ha in [12] was determined as 0%.

`COC(=O)c1nc(-c2ccc(Cl)c(F)c2)nc2c1n(Cc1ccccc1)c(=O)c(=O)n2Cc1ccccc1` [Compound 95-160, 2-(4-chloro-3-fluorophenyl)-5,8-dibenzyl-6,7-dioxo-4-methoxycarbonyl-5,6,7,8-tetrahydropteridine] gave a melting point of 211 °C. Besides, in data set [1] (rate 250 g/ha), the pest or weed control at 250 g/ha stood at 10%. Further, the pest or weed control at 250 g/ha in data set [2] (rate 250 g/ha) was 20%. In addition, the pest or weed control at 250 g/ha in data set [3] (rate 250 g/ha) amounted to 30%. For the same compound, in data set [4] (rate 250 g/ha), the pest or weed control at 250 g/ha came out at 10%. Also, in data set [5] (rate 250 g/ha), the pest or weed control at 250 g/ha turned out to be 20%. Moreover, in [6] (rate 250 g/ha), the pest or weed control at 250 g/ha turned out to be 40%. For the same compound, the pest or weed control at 250 g/ha in data set [7] (rate 250 g/ha) is 0%. Further, the pest or weed control at 250 g/ha in [8] (rate 250 g/ha) turned out to be 0%. Further, in data set [9] (rate 250 g/ha), the pest or weed control at 250 g/ha was 0%. Besides, the pest or weed control at 250 g/ha in data set [10] (rate 250 g/ha) was 0%. In addition, in data set [11] (rate 250 g/ha), the pest or weed control at 250 g/ha turned out to be 0%. Besides, the pest or weed control at 250 g/ha in [12] (rate 250 g/ha) stood at 0%.

`COC(=O)c1nc(-c2ccc(Cl)c(OC)c2F)nc2c1N(Cc1ccccc1)CCN2Cc1ccccc1` [Compound 95-168, 2-(4-Chloro-2-fluoro-3-methoxyphenyl)-5,8-dibenzyl-4-methoxy-carbonyl-5,6,7,8-tetrahydropteridine] returned a melting point of 146 °C. Further, in data set [1], the pest or weed control at 1000 g/ha turned out to be 0%. The pest or weed control at 1000 g/ha in data set [2] was determined as 0%. Moreover, the pest or weed control at 1000 g/ha in data set [3] was 10%. Besides, in data set [4], the pest or weed control at 1000 g/ha is 0%. Further, the pest or weed control at 1000 g/ha in data set [5] was found to be 10%. In addition, the pest or weed control at 1000 g/ha in [6] turned out to be 0%. Also, the pest or weed control at 1000 g/ha in [7] is 0%. Also, the pest or weed control at 1000 g/ha in data set [8] was 0%. In addition, in data set [9], the pest or weed control at 1000 g/ha was found to be 0%. In [10], the pest or weed control at 1000 g/ha was 0%. In data set [11], the pest or weed control at 1000 g/ha amounted to 0%. For the same compound, the pest or weed control at 1000 g/ha in [12] is 0%.

For `COC(=O)c1nc(C2CC2)nc2c1Nc1ccccc1N2` [Compound 119-28, 2-Cyclo-propyl-4-methoxy-carbonyl-5,10-dihydro-benzo[g] pteridine], the melting point lay within 217 to 219 °C. In addition, in data set [1], the pest or weed control at 1000 g/ha came to 0%. The pest or weed control at 1000 g/ha in [2] amounted to 20%. For the same compound, the pest or weed control at 1000 g/ha in data set [3] turned out to be 20%. The pest or weed control at 1000 g/ha in data set [4] worked out at 0%. Also, the pest or weed control at 1000 g/ha in data set [5] was determined as 10%. The pest or weed control at 1000 g/ha in [6] stood at 0%. In addition, the pest or weed control at 1000 g/ha in [7] was 0%. Further, the pest or weed control at 1000 g/ha in data set [8] amounted to 0%. Besides, the pest or weed control at 1000 g/ha in data set [9] worked out at 0%. In data set [10], the pest or weed control at 1000 g/ha came to 0%. In addition, in [11], the pest or weed control at 1000 g/ha came to 0%. Also, the pest or weed control at 1000 g/ha in data set [12] was determined as 0%.

Take `COC(=O)c1nc(-c2ccc(Cl)c(OC)c2F)nc2ncccc12` [Compound 123-50, 2-(4-chloro-2-fluoro-3-methoxyphenyl)-4-methoxycarbonyl-pyrido[2,3-d]pyrimidine]: the melting point lay in the range of 160 to 162 °C. In data set [1], the pest or weed control at 1000 g/ha was found to be 10%. Moreover, the pest or weed control at 1000 g/ha in data set [2] turned out to be 0%. For the same compound, the pest or weed control at 1000 g/ha in data set [3] turned out to be 20%. Also, the pest or weed control at 1000 g/ha in data set [4] is 0%. Further, the pest or weed control at 1000 g/ha in [5] stood at 10%. For the same compound, the pest or weed control at 1000 g/ha in data set [6] was 10%. The pest or weed control at 1000 g/ha in [7] came to 0%. Also, the pest or weed control at 1000 g/ha in [8] was 0%. In addition, the pest or weed control at 1000 g/ha in data set [9] turned out to be 0%. In addition, the pest or weed control at 1000 g/ha in data set [10] came out at 0%. The pest or weed control at 1000 g/ha in [11] worked out at 0%. The pest or weed control at 1000 g/ha in [12] worked out at 0%.
